Entries after “also recorded” stand apart in the source; their conditions may differ.
Experiments:
[1] = tested on: leukemia cells, LSCs, LT-LSC and ST-LSC+MPP; test: In vitro culture of bone marrow cells of CML mice with curcumin, live cell numbers by FACS; format: cell-based; settings: 20 μM, 6 days, vs buffer control
Method: Bone marrow cells are isolated from 6- to 10-week-old C57BL/6 (B6) mice induced with BCR-ABL, for example using the retroviral vector MSCV-IRES-eGFP carrying the p210 BCR-ABL cDNA to produce CML mice. Total bone marrow cells were cultured in vitro in the presence of StemSpan serum-free medium (StemCell Technologies, Vancouver, BC) supplemented with 10 μg/mL heparin (Sigma, St Louis, Mo.), 10 ng/mL mouse SCF, 20 ng/mL mouse TPO, 20 ng/mL mouse IGF-2 (all from R&D Systems, Minneapolis, Minn.), and 10 ng/mL human FGF-1 (Invitrogen, Carlsbad, Calif.). Half of the medium was replaced after 3 days with fresh medium. (Peng et al Blood, 15 Jul. 2007, Vol. 110, No. 2, pp. 678-685; Zhang and Lodish Blood, 1 Jun. 2005, Vol. 105, No. 11, pp. 4314-4320; de Haan et al. Dev Cell 2003; 4:241-251). The cells were cultured for 6 days in the presence or absence of the Alox5 inhibitor, curcumin at (1,7-Bis(4-hydroxy-3-methoxyphenyl)-1,6-heptadiene-3,5-dione; Calbiochem cat. no. 239802) a concentration of 20 μM in vitro (5×10^6 cells/6 cm tissue culture plate) at 37° C. in a 5% CO2 tissue culture incubator. […] Total live cell numbers were measured for leukemia cells, leukemia stem cells, long-term LSC (LT-LSC) and short-term LSCs with multipotent progenitor cells (ST-LSC+MPP). […]

[2] = tested on: K562 myeloid leukemia cells; test: K562 cell proliferation, trypan blue live cell count; format: cell-based, human
Method: The cells are treated with curcumin at 5 different concentrations (20 μM; 40 μM; 60 μM; 80 μM; 100 μM) for 48, 72 and 96 hours. The cells are stained with trypan blue and counted. The total cell number of live cells is shown in the graph in FIG. 27. […] K562 is a human Bcr-Abl positive CML cell line, which was isolated from a CML patient in blast crisis (Koeffler, H. P., and Golde, D. W. 1980. Human myeloid leukemia cell lines: a review. […] This cell line is commonly used for screening compounds to detect anti-proliferative activities of leukemia cells and for the pharmacology and toxicology studies required for IND (Investigational New Drug) application. […] The cells are treated with zileuton at 7 different concentrations (10 μ[…]) for 48, and 72 hours. The cells are stained with trypan blue and counted. The total cell number of live cells following these treatments is shown in the graph in FIG. 28.

Alox5 gene = test: Gene expression in LSCs of CML mice with imatinib treatment (DNA microarray, RT-PCR); format: in vivo; settings: imatinib 150 mg/kg every 4 hours, 5 doses from day 13 post BMT
Text: (§1) Leukemic stem cells in CML (CML-SCs) are insensitive to BCR-ABL kinase inhibitors (Graham et al., 2002). A bone marrow transplantation (BMT) mouse model of CML is used as an assay system, in which bone marrow cells from donor mice pretreated with 5-fluorouracil (5-FU) and transduced with BCR-ABL result in development of CML in recipient mice (Li et al., 1999). Bone marrow cells from C57BL/6 (B6) mice are transduced with retrovirus containing BCR-ABL/GFP or GFP alone under conditions for induction of CML, followed by transplantation of the transduced cells into B6 recipient mice.
Fourteen days after BMT, bone marrow cells are isolated and subsequently sorted by FACS for LSCs (GFP^+Lin^−c-Kit^+Sca-1^+) (Hu et al., 2006). Total RNA is isolated from these BCR-ABL-expressing LSCs or from the GFP^+Lin^−c-Kit^+Sca-1^+ cells that only express GFP, and DNA microarray analysis is carried out to compare gene expression between BCR-ABL-expressing and non-BCR-ABL expressing Lin^−c-Kit^+Sca-1^+ cells.

[3] = tested on: GFP+Gr-1+ myeloid leukemia cells; test: FACS of GFP+Gr-1+ myeloid leukemia cells in peripheral blood and bone marrow of treated CML mice; format: in vivo
Text: as §1
(§2) Water is used as placebo.

[4] = tested on: mice with CML induced by BCR-ABL-T315I; test: Survival of mice with CML induced by BCR-ABL-T315I; format: in vivo; settings: zileuton n=11 vs placebo n=6
LSCs = test: FACS of LT-LSCs and ST-LSCs/MPP cells in bone marrow of zileuton-treated CML mice; format: in vivo; settings: 300 mg/kg twice a day from day 8; days 20 and 90 post BMT
Method: Cell populations affected by Alox5 deficiency are determined using FACS analysis. BCR-ABL-transduced Alox5^−/− bone marrow cells are transplanted into recipient mice (n=4) to induce CML, and bone marrow cells from these mice are analyzed by FACS for percentages of total HSCs (Lin^−c-Kit^+Sca-1^+), LT-HSCs (Lin^−c-Kit^+Sca-1^+CD34^−), and ST-HSCs/MPP cells (Lin^−c-Kit^+Sca-1^+CD34^+).
(§3) Recipients of BCR-ABL-transduced wild type bone marrow cells are treated with zileuton (300 mg/kg of body weight, twice a day) beginning at 8 days after BMT. […] At days 20 and 90 post BMT (induction of CML), FACS analysis is performed.

normal HSCs = test: FACS of normal HSCs in zileuton-treated mice; format: in vivo
Method: as §3, with “performed. […] No suppression of normal HSCs is found in placebo- or zileuton-treated mice receiving wild type donor bone marrow cells transduced with MSCV-IRES-GFP retrovirus.” for “performed.”

white blood cells = test: Peripheral white blood cell counts of CML mice; format: in vivo; settings: 14 days after bone marrow transplantation
Text: as §2
The white blood cells are collected from the CML induced mice 14 days after bone marrow transplantation.

[5] = tested on: mice with BCR-ABL-induced CML; test: Leukemia cell infiltration to lungs and spleens of CML mice; format: in vivo; settings: zileuton-treated CML mice
[6] = tested on: leukemia stem cells (CD34+CD38-); test: Human CML CD34+CD38- cells in patient bone marrow culture, FACS; format: cell-based; settings: 48 h, untreated 1.4%
Method: Bone marrow was isolated from a CML patient. The cells were cultured in serum-free media (SFM: Iscove modified Dulbecco medium (Sigma-Aldrich) supplemented with a serum substitute bovine serum albumin[…][…], BIT9500 from […] Technologies), five growth factors (5GF: cocktail of 20 ng/mL recombinant human IL-3 (rhIL-3), 20 ng/mL rhIL-6, 100 ng/mL rhFlt3-ligand, 100 ng/mL rh stem cell factor, available from […] Technologies)) and zileuton at two doses, 300 μM or 600 μM, for 48 hours. The cells were analyzed by FACS and the percentages of leukemia stem cells (CD34+CD38-) were determined using anti CD34 and anti CD38 antibodies.

Alox5 = biological target: T1, Alox5 (Mus musculus, UniProt P48999); test: Plasma level of LTB4 in CML mice; settings: compared to placebo-treated CML mice
T1 sequence (P48999 1-674): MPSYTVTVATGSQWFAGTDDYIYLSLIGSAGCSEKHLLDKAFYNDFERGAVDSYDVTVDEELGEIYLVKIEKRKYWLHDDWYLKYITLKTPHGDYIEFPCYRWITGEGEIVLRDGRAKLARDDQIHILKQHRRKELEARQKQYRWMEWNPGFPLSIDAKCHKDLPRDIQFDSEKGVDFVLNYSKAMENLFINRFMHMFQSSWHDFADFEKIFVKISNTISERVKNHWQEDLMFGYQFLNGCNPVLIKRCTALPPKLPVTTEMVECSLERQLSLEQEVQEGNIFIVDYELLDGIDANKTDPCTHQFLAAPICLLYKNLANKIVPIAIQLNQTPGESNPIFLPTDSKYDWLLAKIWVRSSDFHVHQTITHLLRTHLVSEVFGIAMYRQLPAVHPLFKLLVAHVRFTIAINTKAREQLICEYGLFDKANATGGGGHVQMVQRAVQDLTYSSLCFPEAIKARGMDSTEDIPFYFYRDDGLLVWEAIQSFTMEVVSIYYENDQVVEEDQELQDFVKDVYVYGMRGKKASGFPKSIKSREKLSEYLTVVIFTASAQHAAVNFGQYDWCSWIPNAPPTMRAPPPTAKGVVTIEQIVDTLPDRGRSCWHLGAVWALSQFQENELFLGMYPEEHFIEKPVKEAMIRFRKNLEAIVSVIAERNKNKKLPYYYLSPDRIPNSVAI

For COc1cc(C=CC(=O)CC(=O)C=Cc2ccc(O)c(OC)c2)ccc1O [Curcumin, 1,7-Bis(4-hydroxy-3-methoxyphenyl)-1,6-heptadiene-3,5-dione], the “Total live cell number of leukemia cells, LSCs, LT-LSC and ST-LSC+MPP” value [1] was “reduced”, the “Number of live K562 cells” value ([2]; 20-100 μM, 72 or 96 hours) was “reduces the number of live cells in all groups” and the “Concentration at which an effect on live K562 cell number is shown” value ([2]; 48 hours) was ≥ 40 µM.
With Cc1ccc(NC(=O)c2ccc(CN3CCN(C)CC3)cc2)cc1Nc1nccc(-c2cccnc2)n1 [Imatinib, 4-[(4-methylpiperazin-1-yl)methyl]-N-[4-methyl-3-[(4-pyridin-3-ylpyrimidin-2-yl)amino]-phenyl]-benzamide] the “Up-regulation of the Alox5 gene by BCR-ABL in LSCs” value (Alox5 gene) was “not abolished; also recorded: not prevented”.
With CC(c1cc2ccccc2s1)N(O)C(N)=O (stereo not shown) [Zileuton, N-[1-(1-benzothien-2-yl)ethyl]-N-hydroxyurea] the “Percentage of GFP+Gr-1+ myeloid leukemia cells in the peripheral blood of CML mice” value (from here on “Percentage … of CML mice”) ([3]; Day 11) was 48.3%, the “Percentage … of CML mice” value ([3]; Day 14) was 49.9% and the “Percentage … of CML mice” value ([3]; Day 21) was 62.9%. For the same compound, the “Percentage … of CML mice” value ([3]; Day 28) was 61.4%, the “Percentage … of CML mice” value ([3]; Day 35) was 39.7% and the “Percentage … of CML mice” value ([3]; Day 42) was 29.4%. For the same compound, the “Percentage … of CML mice” value ([3]; Day 60) was 5.1%, the “GFP+Gr-1+ myeloid leukemia cells in bone marrow” value ([3]; bone marrow, during the treatment) was “drop to low levels” and the “GFP+Gr-1+ cells in peripheral blood over time” value ([3]; from 11 days to 8 weeks) was “gradually decrease with time”. The “Survival of mice with CML induced by BCR-ABL-T315I” value [4] was “prolongs survival”, the “Ratio of percentage of LT-LSCs to percentage of ST-LSCs/MPP cells” value (LSCs) was “increased with treatment” and the “Differentiation of GFP- LT-HSCs in the same animals” value (normal HSCs; CML mice, 300 mg/kg twice a day) was “did not lead to blocked differentiation”. The “Numbers of GFP+Lin-c-Kit+Sca-1+ cells in bone marrow or spleens” value (normal HSCs; mice receiving MSCV-IRES-GFP-transduced wild type bone marrow, day 14 after BMT) was “does not result in a reduction”, the “White blood cell counts” value (white blood cells) was “reduction of white blood cell counts less dramatically than does imatinib treatment” and the “Leukemia cell infiltration to the lungs and the spleens” value [5] was “less severe leukemia cell infiltration”. For the same compound, the “Number of live K562 cells” value ([2]; 10-400 μM, 48 hours) was “reduces the number of live cells in the 200 μM and 400 μM groups”, the “Number of live K562 cells” value ([2]; 10-400 μM, 72 hours) was “shows an effect at all concentrations” and the “Percentage of leukemia stem cells (CD34+CD38-)” value ([6]; 300 μM) was 1.1%. For the same compound, the “Percentage of leukemia stem cells (CD34+CD38-)” value ([6]; 600 μM) was 0.9%, the “Plasma level of LTB4” value (Alox5) was “decreased” and the “Plasma level of LTB4” value (Alox5; listed as zileuton) was “reduction”.

— patent publication US8669289B2, “Methods and compositions relating to hematologic malignancies” (The Jackson Laboratory, priority 2009, dated 2014)
